Columns and labels:
[1] = tested on: mitochondrial fatty acid oxidation using palmitoyl CoA as substrate; assay: Palmitoyl CoA oxidation in isolated rat heart mitochondria; assay type: biochemical; settings: 100 μm compound, 15 min at 30° C.
Method: Rat heart mitochondria were isolated by the method of Nedergard and Cannon (Methods in Enzymol. 55, 3, 1979). Palmitoyl CoA oxidation—The Palmityl CoA oxidation was carried out in a total volume of 100 micro liters containing the following agents: 110 mM KCl, 33 mM Tris buffer at pH 8, 2 mM KPi, 2 mM MgCl2, 0.1 mM EDTA, 14.7 microM defatted BSA, 0.5 mM malic acid, 13 mM carnitine, 1 mM ADP, 52 micrograms of mitochondrial protein, and 16 microM 1-C14 palmitoyl CoA (Sp. Activity 60 mCi/mmole; 20 microCi/ml, using 5 microliters per assay). The compounds of this invention were added in a DMSO solution at the following concentrations: 100 microM, and 50 microM. In each assay, a DMSO control was used. After 15 min at 30° C., the enzymatic reaction was centrifuged (20,000 g for 1 min), and 70 microliters of the supernatant was added to an activated reverse phase silicic acid column (approximately 0.5 ml of silicic acid). The column was eluted with 2 ml of water, and 0.5 ml of the eluent was used for scintillation counting to determine the amount of C^14 trapped as C^14 bicarbonate ion.

[2] = Metabolic stability, incubation with human liver S-9 fractions; assay type: in vitro ADME; settings: % parent remaining after 30 min at 37 C with human liver S9, divided by average % ranolazine remaining (57%)
Method: Metabolic Stability: As a measure of metabolic stability the compounds of this invention were incubated with human liver S-9 microsomal fractions. After, 30 minutes at 37 C, the amount of parent drug remaining was determined using LC-mass spec. The response factors for each compound was determined by establishing a standard curve and using an internal standard during the analysis of the samples. An average of five experiments for percentage of ranolazine remaining at the 30 minute time point is 57%. The compounds of this invention were assayed as described in the protocol below and the percentage of parent remaining was divided by the average % of ranolazine remaining (57%) affording a metabolic stability factor. A compound with a stability number greater than 1.2 has a better stability than ranolazine in the liver S-9 assay. A compound with a stability number between 1.2 and 0.8 has an equivalent stability in the liver S-9 assay.
The purpose of this experiment is to compare the percentages remaining for compounds of this invention with the percentage remaining for ranolazine after 30 minutes of incubation with human liver S9 fractions.
The following reagents were used; Potassium phosphate, 0.5M pH 7.4 (incubation buffer), kept at room temperature; 0.05M MgCl^2 kept at 4° C.; β-Nicotinamide adenine dinucleotide phosphate, tetrasodium salt, reduced form (NADPH), 0.02M solution in water (˜16.6 mg/mL) from Sigma Lot #79H7044 prepared on day of use. 1 mM of ranolazine or Compounds 43, 45, 47, 52, 70, 74, 76, 78, and 80 in ACN further diluted to obtain 100 μM in 10% ACN; Human S9 stock: 20 mg/mL from Gentest.
Incubation mixtures were prepared as follows:
Combine all components with incubation buffer and re-pipette 200 μL/tube+25 μL of the compound being tested along with 25 μL of S-9.
After 5 min of pre-incubation at 37° C., at 0 and 30 min after starting the reaction, a 50 μl aliquot of the incubation mixture was removed and added to 100 μL of 9:1 acetonitrile:methanol containing the internal standard.
The mixture was centrifuged and a 100 μL aliquot of the supernatant was diluted in 1 mL of solvent C (0.1% Formic Acid in water). Then samples were analyzed for change between the ratio of compound to internal standard at time zero and 30 minutes by LC/MS (injected 10 μL).
Samples were analyzed for the starting compounds and potential metabolite/s by LC/MS using an internal standard and an ODS-C18 column with a flow rate of 0.25 ml/min.

Structure (SMILES) | Inhibition of mitochondrial fatty acid oxidation using palmitoyl CoA as substrate - % of Control, 100 μm (%) [1] [%] | Liver S9 Stability Factor [2]
Cc1cccc(C)c1NC(=O)CN1CCN(CC(O)COc2cccc3cnccc23)CC1 (stereo not drawn) [Compound 76, N-(2,6-dimethylphenyl)-2-{4-[2-hydroxy-3-(isoquinolin-5-yloxy)-propyl]-piperazin-1-yl}acetamide] | 26 | 0.8
Cc1cccc(C)c1NC(=O)CN1CCN(CC(O)COc2ccc3ncccc3c2)CC1 (stereo not drawn) [Compound 78, N-(2,6-dimethylphenyl)-2-{4-[2-hydroxy-3-(quinolin-6-yloxy)-propyl]-piperazin-1-yl}acetamide] | 42 | 0.6
Cc1ccc2ccc(OCC(O)CN3CCN(CC(=O)Nc4c(C)cccc4C)CC3)cc2n1 (stereo not drawn) [Compound 80, N-(2,6-dimethylphenyl)-2-{4-[2-hydroxy-3-(2-methyl-quinolin-7-yloxy)-propyl]-piperazin-1-yl}acetamide] | 22 | 0.5
